In patent US20240374738A1, “BIFUNCTIONAL COMPOUND CAPABLE OF DEGRADING RECEPTOR TYROSINE KINASE AND APPLICATION THEREOF” (TAIBIDI PHARMACEUTICAL TECHNOLOGY (SHIJIAZHUANG) CO., LTD., priority 2023, published 2024):

Columns and labels:
Format in all cases: cell-based
MKN45 = assay: Growth inhibition of gastric cancer cells MKN45 (CCK-8); conditions: Homo sapiens, MKN-45, half inhibitory concentration, 72 hours
Procedure: (§1) Inoculate gastric cancer cells (SNU5 or MKN45) into a 96 well plate at a concentration of […], with 100 μl added to each well. Incubate for 30 minutes. Observe the cell status under a microscope. Prepare compounds, weigh a certain amount of the series compounds or reference drug cabozantinib of this patent, first prepare a high concentration mother liquor with pure DMSO, and use gradient dilution method to prepare a concentration of 200 μM, 60 μM, 20 μM, 6 μM, 2 μM, 600 nM, 200 nM, 0 nM drug solution, shake to make it fully mixed. The control group was prepared with cabozantinib using the same solvent and method.
(§2) After preparation, add 1 μl of drug solution to each well of the 96 well plate, and then add 100 μl of culture medium. Repeat each dose three times. Gently shake to allow the cells and medication to come into full contact and incubate in the incubator for 72 hours. 72 hours later, remove and color with CCK-8 reagent kit. Add 20 μl of CCK-8 reagent to each well, gently shake well, and incubate in the incubator for 1 hour. After 1 hour, remove and measure the absorbance of each well using an enzyme-linked immunosorbent assay (ELISA) reader at a wavelength of 450 nm.
(§3) According to the formula: Cell growth inhibition rate=[1−(absorbance of experimental group absorbance of culture medium control group)/(absorbance of blank control group−absorbance of culture medium control group)]×100%. It can be concluded that the compound has the ability to inhibit the growth of gastric cancer cells at the current dose and time.
(§4) Draw a graph based on the gradient of concentration and use GraphPad Prism 9 software (GraphPad Software, La Jolla, CA) to calculate the maximum inhibitory concentration (IC50) at 50%.
(§5) Referring to steps 1 and 2 of this embodiment, the inhibitory effect of the compound of the present invention on the growth of cancer cells and the degradation effect of target proteins were measured, and the following results were obtained (see Table 2 below).
(§6) The growth inhibitory effects of the compound of the present invention on tumor cell lines MKN45 and SNU5 were measured. The activity is expressed as half inhibitory concentration (C50). The results are shown in Table 2 below; When the half inhibitory concentration is less than or equal to 100 nM, the compound activity is labeled as “++++”; When the half inhibitory concentration is greater than 100 nM and less than 500 nM, the compound activity is labeled as […] and less than 1000 nM, the compound activity is labeled as “++”; When the half inhibitory concentration is greater than 1000 nM and less than 3000 nM, the compound activity is marked as “+”; When the half inhibitory concentration is greater than 3000 nM, the compound activity is marked as […]

SNU5 = assay: Growth inhibition of gastric cancer cells SNU5 (CCK-8); conditions: Homo sapiens, SNU-5, half inhibitory concentration, 72 hours
Procedure: as §1, §2, §3, §4, §5, §6

DDR1 = DDR1 (Homo sapiens, UniProt Q08345); assay: Degradation of DDR1 in tumor cell MKN45 (Western blot); parameters: The degradation activity of the compounds against DDR1 in the MKN45 cell line; endogenous in cells; host or cells: MKN45; conditions: MKN-45, maximum degradation percentage, MKN45 cells, 24 hours
Procedure: Western blot experiment: Take gastric cancer cells (MKN45) and inoculate them into a 6-well plate at a concentration of […], adding 2 ml to each well and incubating for 24 hours.
The next day, observe the cells under a microscope to confirm their status. Prepare compounds, weigh a certain amount of the series compounds or reference drug cabozantinib from this patent, first prepare a high concentration mother liquor with pure DMSO, and use gradient dilution method to prepare compound concentrations of 2 mM, 200 μM, 100 μM, 20 μM, 2 μM, 200 nM, and 0 nM. The final concentration of DMSO is 0.5%. Shake to thoroughly mix. Add 10 μl of solution to each well. After incubation for 24 hours, remove the cells and use a pipette to aspirate the suspended cells into a 1.5 ml centrifuge tube. Centrifuge at 5000 rpm for 10 minutes to precipitate the cells. Carefully remove the cell precipitate from the culture medium, add 1 ml of PBS and shake slightly. After repeated cleaning for 3 times, dry the residue. Add 150 μl of RIPA lysate pre mixed with 1% PMSF, blow to allow the lysate to fully contact the cells, and incubate on ice for 10 minutes. Centrifuge at 12000 rpm for 10 minutes, extract the supernatant, use the BCA protein quantification kit to determine and homogenize the sample loading.
Mix BCA-A in a 50:1 ratio Prepare working solution with B solution, dilute the sample by 5 times, then pipette 20 μl onto a 96 well ELISA plate. Add 200 μl of pre mixed BCA working solution and incubate at 37° C. for 20 minutes. Measure the A562 nm absorbance value using an ELISA reader and substitute it into the protein standard curve formula to obtain the sample concentration. After calculating the required volume for loading […] of sample, divide the sample into 1.5 ml centrifuge tubes. Add 10 μl of sample buffer to each tube and mix well. Heat in a 95° C. metal bath for 5 minutes to denature the protein.
Take 4-20% gradient pre adhesive and fix it on the adhesive rack. Add electrophoresis solution to the slot and remove the comb, Marker and protein samples were loaded, and after 30 minutes of electrophoresis at 80V, the voltage was adjusted to 120V for electrophoresis, The marker band stops electrophoresis at the forefront of the gel. Take out the adhesive block and cut it to the appropriate size, The PVDF membrane was cut and activated in methanol, and after activation, the PVDF membrane was equilibrated in a membrane transfer equilibrium solution for 1 minute. Using sponge pads The sequence of PVDF film, adhesive, and sponge pad is placed in the splint and placed in the eBlot equipment for rapid wet rotation. Remove the membrane and seal it in 5% skim milk powder dissolved in 1×TBST for 1 hour. Cut the membrane according to the molecular weight of the target protein and internal reference protein, and place it in primary antibody diluted with 1×TBST. Shake overnight at 4° C.
The next day, transfer the band to 1×TBST for 3 washes, then add a specific dilution of the secondary antibody and shake it for 1.5 hours. Transfer the band again to 1×TBST for 3 washes, prepare ECL color solution, place the membrane in the imaging system, cover the surface with ECL color solution, and take photos of the membrane using the imaging system.
Using the SHST analysis system to analyze the results, measure the grayscale values of each band of the target protein and internal reference protein. Normalize the grayscale values of the target protein/corresponding lane GAPDH grayscale values, and perform quantitative analysis according to the protein amount=experimental group grayscale value/blank control group grayscale value.
The activity of the compound of the present invention in degrading DDR in tumor cell line MKN45 was measured. […]

DDR1, sequence (Q08345 19-913): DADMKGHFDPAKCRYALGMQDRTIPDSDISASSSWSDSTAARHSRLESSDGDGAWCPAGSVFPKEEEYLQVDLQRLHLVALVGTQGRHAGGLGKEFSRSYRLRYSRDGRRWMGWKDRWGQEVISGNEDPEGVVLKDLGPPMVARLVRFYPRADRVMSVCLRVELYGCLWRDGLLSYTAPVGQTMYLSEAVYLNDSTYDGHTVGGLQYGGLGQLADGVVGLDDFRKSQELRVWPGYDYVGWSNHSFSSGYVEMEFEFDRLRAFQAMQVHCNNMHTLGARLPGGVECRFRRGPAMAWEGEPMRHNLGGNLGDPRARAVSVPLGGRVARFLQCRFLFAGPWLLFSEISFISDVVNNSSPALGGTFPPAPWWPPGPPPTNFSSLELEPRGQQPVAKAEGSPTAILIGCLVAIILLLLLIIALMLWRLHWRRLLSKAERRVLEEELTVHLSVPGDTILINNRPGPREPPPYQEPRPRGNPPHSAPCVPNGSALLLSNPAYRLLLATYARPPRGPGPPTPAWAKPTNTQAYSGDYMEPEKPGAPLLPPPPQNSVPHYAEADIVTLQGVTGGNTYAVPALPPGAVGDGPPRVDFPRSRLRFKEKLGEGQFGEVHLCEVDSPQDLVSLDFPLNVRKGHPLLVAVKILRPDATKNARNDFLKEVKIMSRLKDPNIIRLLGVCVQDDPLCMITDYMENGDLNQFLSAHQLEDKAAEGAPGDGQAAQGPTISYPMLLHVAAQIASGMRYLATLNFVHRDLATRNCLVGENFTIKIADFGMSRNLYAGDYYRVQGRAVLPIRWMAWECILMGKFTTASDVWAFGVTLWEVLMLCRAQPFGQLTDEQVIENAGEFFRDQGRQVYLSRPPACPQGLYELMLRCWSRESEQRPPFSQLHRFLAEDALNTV

Row | IC50 (MKN45) [µM] | IC50 (SNU5) [µM] | Dmax (DDR1) [%] | SMILES
1 | ≤ 0.1 | ≤ 0.1 | 65 to 75 | COc1cc2c(Oc3ccc(NC(=O)C4(C(=O)Nc5ccc(F)cc5)CC4)cc3)ccnc2cc1N1CCC(CN2C[C@@H]3C[C@H]2CN3CCC(=O)Nc2ccc3c(c2)CN(C2CCC(=O)NC2=O)C3=O)CC1 (stereo partly drawn) [TPD12218]
2 | 1 to 3 | 1 to 3 | 65 to 75 | COc1cc2c(Oc3ccc(NC(=O)C4(C(=O)Nc5ccc(F)cc5)CC4)cc3)ccnc2cc1N1CCC(CN2CC(C(=O)N3C[C@H](O)C[C@H]3C(=O)NCc3ccc(-c4scnc4C)cc3)C2)CC1 [TPD5430]
3 | 1 to 3 | 0.5 to 1 | 65 to 75 | COc1cc2c(Oc3ccc(NC(=O)C4(C(=O)Nc5ccc(F)cc5)CC4)cc3)ccnc2cc1N1CCC(N2CCC(C(=O)N[C@H](C(=O)N3C[C@H](O)C[C@H]3C(=O)NCc3ccc(-c4scnc4C)cc3)C(C)(C)C)CC2)CC1 [TPD5420]
4 | 1 to 3 | 1 to 3 | 65 to 75 | COc1cc2c(Oc3ccc(NC(=O)C4(C(=O)Nc5ccc(F)cc5)CC4)cc3)ccnc2cc1N1CCC(CN2CC(N[C@H](C(=O)N3C[C@H](O)C[C@H]3C(=O)NCc3ccc(-c4scnc4C)cc3)C(C)(C)C)C2)CC1 [TPD5431]
5 | 1 to 3 | 0.5 to 1 | 75 to 85 | COc1cc2c(Oc3ccc(NC(=O)C4(C(=O)Nc5ccc(F)cc5)CC4)cc3)ccnc2cc1-c1cnn(C2CCN(C(=O)CCCCC(=O)N[C@H](C(=O)N3C[C@H](O)C[C@H]3C(=O)NCc3ccc(-c4scnc4C)cc3)C(C)(C)C)CC2)c1 [TPD5505]
6 | 0.5 to 1 | 0.5 to 1 | 75 to 85 | COc1cc2c(Oc3ccc(NC(=O)C4(C(=O)Nc5ccc(F)cc5)CC4)cc3)ccnc2cc1COCCN1CCN(CCNc2cccc3c2C(=O)N(C2CCC(=O)NC2=O)C3=O)CC1 (stereo not drawn) [TPD5316]
7 | 1 to 3 | 1 to 3 | 65 to 75 | COc1cc2c(Oc3ccc(NC(=O)C4(C(=O)Nc5ccc(F)cc5)CC4)cc3)ccnc2cc1N1CCC(C(=O)NCC(=O)N[C@H](C(=O)N2C[C@H](O)C[C@H]2C(=O)NCc2ccc(-c3scnc3C)cc2)C(C)(C)C)CC1 [TPD5452]
8 | 1 to 3 | 0.5 to 1 | 65 to 75 | N#Cc1cccc(-c2ccc(=O)n(Cc3cccc(-c4ncc(OCC5CCN(CCC(=O)Nc6cccc7c6CN(C6CCC(=O)NC6=O)C7=O)CC5)cn4)c3)n2)c1 (stereo not drawn) [TPD10013]
9 | 0.1 to 0.5 | 0.1 to 0.5 | 65 to 75 | O=C1CCC(N2C(=O)c3ccc(N4CCN(CCC5CCN(CCNC(=O)c6ccc(-c7cnc8ncc(Cc9ccc%10ncccc%10c9)n8n7)cc6F)CC5)CC4)cc3C2=O)C(=O)N1 (stereo not drawn) [TPD7022]
10 | ≤ 0.1 | ≤ 0.1 | 65 to 75 | COc1cc2c(Oc3ccc(NC(=O)C4(C(=O)Nc5ccc(F)cc5)CC4)cc3)ccnc2cc1N1CCC(CN2CCN(CCCc3cccc4c3CN(C3CCC(=O)NC3=O)C4=O)CC2)CC1 (stereo not drawn) [TPD5937]
11 | 0.1 to 0.5 | 0.1 to 0.5 | 65 to 75 | COc1cc2c(Oc3ccc(NC(=O)C4(C(=O)Nc5ccc(F)cc5)CC4)cc3)ccnc2cc1COCCN1CCC(OCCC(=O)N[C@H](C(=O)N2C[C@H](O)C[C@H]2C(=O)NCc2ccc(-c3scnc3C)cc2)C(C)(C)C)CC1 [TPD5305]
12 | 0.5 to 1 | 0.1 to 0.5 | 75 to 85 | COc1cc2c(Oc3ccc(NC(=O)C4(C(=O)Nc5ccc(F)cc5)CC4)cc3)ccnc2cc1NC(=O)CN1CCC(CN2CCN(c3ccc4c(c3)C(=O)N(C3CCC(=O)NC3=O)C4=O)CC2)CC1 (stereo not drawn) [TPD5735]
13 | ≤ 0.1 | ≤ 0.1 | < 50 | COc1cc2nccc(Oc3ccc(NC(=O)C4(C(=O)Nc5ccc(F)cc5)CC4)cc3)c2cc1OC [cabozantinib, reference compound]

Row | SMILES | IC50 (MKN45) [µM] | IC50 (SNU5) [µM] | Dmax (DDR1) [%]
14 | COc1cc2c(Oc3ccc(NC(=O)C4(C(=O)Nc5ccc(F)cc5)CC4)cc3)ccnc2cc1N1CCC(CN2CC3CC(C2)N3CCNc2cc3c(cn2)C(=O)N(C2CCC(=O)NC2=O)C3)CC1 (stereo not drawn) [TPD12082] | 0.1 to 0.5 | ≤ 0.1 | 65 to 75
15 | COc1cc2c(Oc3ccc(NC(=O)C4(C(=O)Nc5ccc(F)cc5)CC4)cc3)ccnc2cc1N1CCC(CN2CCN(CCNc3ccc4c(n3)C(=O)N(C3CCC(=O)NC3=O)C4)CC2)CC1 (stereo not drawn) [TPD12013] | 0.1 to 0.5 | 0.1 to 0.5 | > 85
16 | COc1cc2c(Oc3ccc(NC(=O)C4(C(=O)Nc5ccc(F)cc5)CC4)cc3)ccnc2cc1N1CCC(CN2C[C@@H]3C[C@H]2CN3CCNc2cc3c(cn2)C(=O)N(C2CCC(=O)NC2=O)C3)CC1 (stereo partly drawn) [TPD12096] | ≤ 0.1 | ≤ 0.1 | 65 to 75
17 | COc1cc2c(Oc3ccc(NC(=O)C4(C(=O)Nc5ccc(F)cc5)CC4)cc3)ccnc2cc1N1CCC(CN2CCN(CCNc3nccc4c3CN(C3CCC(=O)NC3=O)C4=O)CC2)CC1 (stereo not drawn) [TPD12001] | ≤ 0.1 | ≤ 0.1 | 65 to 75
18 | O=C1CCC(N2Cc3cc(C#CCCN4CC5CC(C4)N5CC4CCN(c5cc6nccc(Oc7ccc(NC(=O)C8(C(=O)Nc9ccc(F)cc9)CC8)cc7)c6cc5F)CC4)ccc3C2=O)C(=O)N1 (stereo not drawn) [TPD12237] | ≤ 0.1 | ≤ 0.1 | 65 to 75
19 | O=C1CCC(N2Cc3cc(NC(=O)CCN4CC5CC(C4)N5CC4CCN(c5cc6nccc(Oc7ccc(NC(=O)C8(C(=O)Nc9ccc(F)cc9)CC8)cc7)c6cc5F)CC4)ncc3C2=O)C(=O)N1 (stereo not drawn) [TPD12162] | ≤ 0.1 | ≤ 0.1 | 65 to 75
20 | C[C@@H](Oc1cc(-c2cnn(C3CCN(CCC(=O)Nc4cccc5c4CN(C4CCC(=O)NC4=O)C5=O)CC3)c2)cnc1N)c1c(Cl)ccc(F)c1Cl (stereo partly drawn) [TPD10040] | ≤ 0.1 | ≤ 0.1 | 75 to 85
21 | COc1cc2c(Oc3ccc(NC(=O)C4(C(=O)Nc5ccc(F)cc5)CC4)cc3)ccnc2c(F)c1N1CCC(CN2C3CC2CN(CCC(=O)Nc2cccc4c2CN(C2CCC(=O)NC2=O)C4=O)C3)CC1 (stereo not drawn) [TPD12140] | ≤ 0.1 | ≤ 0.1 | 65 to 75
